Measured values published in ChEMBL document CHEMBL1201862, “PubChem BioAssay data set” (2004).
Calls of active or inactive are those of the source.

What was measured:
[1] = biological target: T1, DNA repair protein RAD52 homolog (Homo sapiens, UniProt P43351); assay type: functional, biochemical
T1 sequence (P43351 whole entry): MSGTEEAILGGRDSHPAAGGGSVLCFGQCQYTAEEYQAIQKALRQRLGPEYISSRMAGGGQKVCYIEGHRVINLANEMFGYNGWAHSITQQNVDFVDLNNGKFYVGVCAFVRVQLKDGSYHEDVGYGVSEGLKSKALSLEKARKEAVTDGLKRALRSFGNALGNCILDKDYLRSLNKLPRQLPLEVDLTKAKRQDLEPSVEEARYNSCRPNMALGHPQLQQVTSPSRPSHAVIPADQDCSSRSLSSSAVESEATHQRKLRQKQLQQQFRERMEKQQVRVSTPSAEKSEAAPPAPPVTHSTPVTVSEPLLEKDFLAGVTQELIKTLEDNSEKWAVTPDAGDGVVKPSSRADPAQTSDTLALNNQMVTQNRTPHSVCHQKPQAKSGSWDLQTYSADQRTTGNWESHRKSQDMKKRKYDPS

[2] = biological target: T2, Caspase-6 (Homo sapiens, UniProt P55212); assay: inhibition of CASP6 peptide cleavage – biochemical, VEID-R110 fluorescence, cherry-pick, dose response (AID 720632)
T2 sequence (P55212 whole entry): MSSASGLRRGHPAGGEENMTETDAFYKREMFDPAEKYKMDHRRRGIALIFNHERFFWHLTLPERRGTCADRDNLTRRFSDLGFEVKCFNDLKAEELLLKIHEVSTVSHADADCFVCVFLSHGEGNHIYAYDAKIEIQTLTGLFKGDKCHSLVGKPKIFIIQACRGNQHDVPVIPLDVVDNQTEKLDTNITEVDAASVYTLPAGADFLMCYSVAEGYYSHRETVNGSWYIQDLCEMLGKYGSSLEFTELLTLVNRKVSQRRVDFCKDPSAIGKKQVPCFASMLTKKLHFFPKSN

[3] = biological target: Tyrosyl-DNA phosphodiesterase 2 (Homo sapiens, UniProt O95551); assay: potency against TDP2 phosphodiesterase activity – biochemical, epi absorbance, IC50, dose response (AID 743297)
Chain of Tyrosyl-DNA phosphodiesterase 2 (O95551 whole entry): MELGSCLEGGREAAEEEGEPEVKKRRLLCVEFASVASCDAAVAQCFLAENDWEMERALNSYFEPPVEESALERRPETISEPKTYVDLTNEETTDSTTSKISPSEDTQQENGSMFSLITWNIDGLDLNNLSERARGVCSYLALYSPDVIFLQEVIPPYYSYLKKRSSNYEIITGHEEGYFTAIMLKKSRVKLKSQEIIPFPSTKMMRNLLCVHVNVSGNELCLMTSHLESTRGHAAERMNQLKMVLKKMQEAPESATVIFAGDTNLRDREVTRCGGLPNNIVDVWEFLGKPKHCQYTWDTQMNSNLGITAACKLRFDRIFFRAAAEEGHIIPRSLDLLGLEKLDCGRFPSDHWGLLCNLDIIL

[4] = biological target: Caspase-7 (Homo sapiens, UniProt P55210); assay: caspase-7 enzyme inhibition, selectivity check – biochemical, DEVD-R110 fluorescence, cherry-pick, selectivity assay for caspase-6 inhibitor project, dose response (AID 743295); assay type: functional
Chain of Caspase-7 (P55210 24-198 limits assumed): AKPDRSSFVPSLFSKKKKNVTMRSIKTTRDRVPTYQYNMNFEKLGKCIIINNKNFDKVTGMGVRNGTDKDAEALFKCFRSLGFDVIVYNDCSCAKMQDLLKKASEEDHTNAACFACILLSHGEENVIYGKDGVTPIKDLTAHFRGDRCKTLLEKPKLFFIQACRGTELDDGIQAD
Chain of Caspase-7 (P55210 207-303 limits assumed): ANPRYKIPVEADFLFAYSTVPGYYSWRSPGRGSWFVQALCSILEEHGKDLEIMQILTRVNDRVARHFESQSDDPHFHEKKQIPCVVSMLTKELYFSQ

[5] = biological target: T3, Histone-lysine N-methyltransferase NSD2 (Homo sapiens, UniProt O96028); assay type: biochemical
T3 sequence (O96028 whole entry): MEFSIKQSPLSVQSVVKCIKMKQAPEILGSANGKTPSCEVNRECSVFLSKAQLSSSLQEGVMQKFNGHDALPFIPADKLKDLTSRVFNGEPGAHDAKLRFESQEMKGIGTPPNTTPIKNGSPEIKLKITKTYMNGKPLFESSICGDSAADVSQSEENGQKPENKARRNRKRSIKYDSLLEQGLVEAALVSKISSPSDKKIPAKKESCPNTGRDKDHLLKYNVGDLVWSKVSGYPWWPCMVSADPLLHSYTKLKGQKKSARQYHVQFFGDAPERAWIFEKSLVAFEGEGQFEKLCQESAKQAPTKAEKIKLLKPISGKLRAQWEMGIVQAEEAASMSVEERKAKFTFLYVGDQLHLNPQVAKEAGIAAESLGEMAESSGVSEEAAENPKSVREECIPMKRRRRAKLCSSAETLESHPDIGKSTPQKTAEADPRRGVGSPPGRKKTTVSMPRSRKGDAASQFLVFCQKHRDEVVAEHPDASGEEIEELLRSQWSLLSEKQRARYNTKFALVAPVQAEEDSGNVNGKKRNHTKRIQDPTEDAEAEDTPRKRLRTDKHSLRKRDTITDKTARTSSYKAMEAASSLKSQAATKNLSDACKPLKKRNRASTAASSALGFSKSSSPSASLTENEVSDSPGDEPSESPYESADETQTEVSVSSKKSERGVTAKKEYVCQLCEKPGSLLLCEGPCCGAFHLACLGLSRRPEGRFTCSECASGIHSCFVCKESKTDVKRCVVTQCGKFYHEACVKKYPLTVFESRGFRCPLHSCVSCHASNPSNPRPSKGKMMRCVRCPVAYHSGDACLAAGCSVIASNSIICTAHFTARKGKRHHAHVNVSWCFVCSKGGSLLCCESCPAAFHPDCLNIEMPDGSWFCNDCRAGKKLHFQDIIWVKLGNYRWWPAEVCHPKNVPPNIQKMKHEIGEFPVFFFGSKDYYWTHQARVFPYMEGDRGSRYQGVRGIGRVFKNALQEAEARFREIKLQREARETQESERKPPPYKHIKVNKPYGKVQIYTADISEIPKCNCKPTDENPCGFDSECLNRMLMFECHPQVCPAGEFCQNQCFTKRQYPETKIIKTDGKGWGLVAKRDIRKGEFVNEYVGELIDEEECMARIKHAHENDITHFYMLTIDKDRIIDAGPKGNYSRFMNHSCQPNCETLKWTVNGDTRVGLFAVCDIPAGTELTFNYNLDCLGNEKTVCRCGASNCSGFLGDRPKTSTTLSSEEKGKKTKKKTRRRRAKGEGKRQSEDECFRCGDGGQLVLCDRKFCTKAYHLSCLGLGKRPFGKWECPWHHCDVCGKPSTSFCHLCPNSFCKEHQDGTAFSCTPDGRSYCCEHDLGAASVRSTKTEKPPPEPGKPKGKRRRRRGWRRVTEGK

[6] = biological target: T4, Ubiquitin-conjugating enzyme E2 N (Homo sapiens, UniProt P61088); assay type: functional;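 also: Dose-response confirmation in a TR-FRET assay detecting UBC13-driven polyubiquitin chain formation, inhibition measured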
T4 sequence (P61088 whole entry): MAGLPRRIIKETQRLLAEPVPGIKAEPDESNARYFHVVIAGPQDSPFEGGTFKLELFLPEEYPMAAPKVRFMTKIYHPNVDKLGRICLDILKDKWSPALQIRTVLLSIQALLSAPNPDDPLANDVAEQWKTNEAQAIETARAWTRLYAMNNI

[7] = system: Vero; assay: cells; assay type: functional; settings: Chlorocebus sabaeus

**Q.** `COc1cc2c(cc1OC)-c1c(OC)c(OC)cc3c1[C@H](C2)N(C)CC3` was tested. Which AC50 [1] did it give?
**A.** 2.86 µM (active)

**Q.** What about the AC50 [2] of the same molecule?
**A.** 0.926 µM (active)

**Q.** What about the IC50 [3] of the same molecule?
**A.** 6.22 µM (active)

**Q.** What about the AC50 [4] of the same molecule?
**A.** 1.77 µM (active)

**Q.** `O=C1C(Cl)=C(N2CCC(C(=O)O)CC2)C(=O)c2ccccc21` was tested. Which AC50 [5] did it give?
**A.** 1.46 µM (active)

**Q.** For `CCCCCCCCCCOC(=O)Cn1c(COc2ccc(OC)cc2)[n+](C)c2ccccc21`, which IC50 [6] is on record?
**A.** 12.5 µM (active)

**Q.** What about the CC50 [7] of the same molecule?
**A.** > 25 µM (active)

**Q.** How did the AC50 [5] turn out when `COC1=C(c2ccccc2)C(=O)c2ccccc2C1=O` was run?
**A.** > 20 µM (inactive)
